# Results reported in publication PMC12516390 (ACS Medicinal Chemistry Letters, 2025).
# Read-outs that look alike come from different tables or passages of the source.
# Assays:
# [1] = molecular target: T1, Human Recombinant Cathepsin K (Homo sapiens, UniProt P43235); assay: Cathepsin selectivity screening, Cat K (Z-Phe-Arg-AMC); assay type: biochemical; settings: Z-Phe-Arg-AMC substrate
# T1 sequence (P43235 115-329): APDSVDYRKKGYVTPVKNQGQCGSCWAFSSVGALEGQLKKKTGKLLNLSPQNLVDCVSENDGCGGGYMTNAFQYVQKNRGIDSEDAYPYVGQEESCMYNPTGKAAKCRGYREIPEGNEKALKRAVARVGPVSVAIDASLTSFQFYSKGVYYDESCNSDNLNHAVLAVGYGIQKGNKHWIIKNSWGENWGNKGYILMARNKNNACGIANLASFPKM
# [2] = molecular target: Human Recombinant Cathepsin B (Homo sapiens, UniProt P07858); assay: Cathepsin selectivity screening, Cat B (Z-Phe-Arg-AMC); assay type: biochemical; settings: for IC50: Z-Phe-Arg-AMC substrate
# [3] = molecular target: recombinant M^Pro (Severe acute respiratory syndrome coronavirus 2, UniProt P0DTD1); assay: SARS-CoV-2 Mpro screening and IC50 determination (QS1 fluorogenic substrate, Drag assay); assay type: biochemical; settings: for inhibition at 10 µM: read-out: M^Pro (%inh)@10μM
# [4] = in vitro; settings: African monkey
# [5] = molecular target: Human Recombinant Cathepsin S (Homo sapiens, UniProt P25774); assay: Cathepsin selectivity screening, Cat S (Z-Val-Val-Arg-AMC); assay type: biochemical; settings: Z-Val-Val-Arg-AMC substrate
# [6] = molecular target: Human Recombinant Cathepsin L (Homo sapiens, UniProt P07711); assay: Cathepsin selectivity screening, Cat L (Z-Phe-Arg-AMC); assay type: biochemical; settings: Z-Phe-Arg-AMC substrate
# [7] = molecular target: PL^Pro (Severe acute respiratory syndrome coronavirus 2, UniProt P0DTD1); assay: SARS-CoV-2 PLpro screening (Ac-LRGG-ACC substrate); assay type: biochemical; settings: read-out: PL^Pro (%inh)@10μM
# [8] = physchem; settings: pH 7.4
# [9] = in vitro; settings: mouse, microsomes, pH 7.4
# [10] = in vitro; settings: human, microsomes, pH 7.4
# [11] = physchem; settings: pH 7.4, aqueous buffer, kinetic from dmso stock
# [12] = Table 5, read-out: IC50 (μM) CatK
# [13] = Table 5, read-out: IC50 (μM) CatB
# [14] = IC50 (μM) M^Pro, recombinant M^Pro, 20 μM QS1 substrate, Table 5
# [15] = Table 5, read-out: IC50 (μM) CatS
# [16] = Table 5, read-out: IC50 (μM) CatL
# [17] = M^Pro IC50 (μM), recombinant M^Pro, 20 μM QS1 substrate, Table 3
# [18] = M^Pro IC50 (μM), recombinant M^Pro, 20 μM QS1 (Ac-Abu-Tle-Leu-Gln-ACC) substrate, Table 1
# [19] = M^Pro IC50 (μM), recombinant M^Pro, Table 6
# Sequence of Human Recombinant Cathepsin S (P25774 115-331): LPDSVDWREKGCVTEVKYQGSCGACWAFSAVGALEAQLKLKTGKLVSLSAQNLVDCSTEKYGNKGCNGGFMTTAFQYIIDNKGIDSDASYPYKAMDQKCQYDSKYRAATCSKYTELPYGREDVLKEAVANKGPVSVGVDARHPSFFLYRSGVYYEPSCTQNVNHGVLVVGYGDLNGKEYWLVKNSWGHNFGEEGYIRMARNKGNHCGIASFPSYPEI
# Sequence of Human Recombinant Cathepsin L (P07711 114-333): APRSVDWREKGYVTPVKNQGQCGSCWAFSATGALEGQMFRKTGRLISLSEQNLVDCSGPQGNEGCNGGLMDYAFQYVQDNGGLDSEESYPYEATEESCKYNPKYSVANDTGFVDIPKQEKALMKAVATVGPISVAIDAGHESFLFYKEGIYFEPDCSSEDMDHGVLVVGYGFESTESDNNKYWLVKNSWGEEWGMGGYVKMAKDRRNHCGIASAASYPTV
SMILES,"IC50 [1, 12]","IC50 [2, 13]","IC50 [3, 14]",CC50 [4],"IC50 [5, 15]","IC50 [6, 16]","IC50 [3, 17]",also measured
COc1cccc(-c2ccc(C(=O)N[C@@H](CC3CCCCC3)C(=O)N[C@H](C#N)C[C@@H]3CCNC3=O)c(Cl)c2)c1 [23d],0.887 µM,0.137 µM,0.094 µM,> 100000 nM,0.011 µM,> 10 µM,–,–
CC(C)C[C@H](NC(=O)c1ccc(-c2ccc3cnn(C)c3c2)cc1Cl)C(=O)N[C@H](C#N)C[C@@H]1CCNC1=O [18q],–,–,–,77400 nM,–,–,0.053 µM,–
COc1ccc(-c2ccc(C(=O)N[C@@H](CC(C)C)C(=O)N[C@H](C#N)C[C@@H]3CCNC3=O)c(C(F)(F)F)c2)cc1 [18m],–,–,–,70600 nM,–,–,0.096 µM,–
CC(C)C[C@H](NC(=O)c1ccc(-c2ccc3c(cnn3C)c2)cc1)C(=O)N[C@H](C#N)C[C@@H]1CCNC1=O [6l],–,–,–,> 100000 nM,–,–,–,"inhibition at 10 µM [3]: > 95%; IC50 ([3]; read-out: M^Pro IC50, Table 2): 0.56 µM; IC50 ([3]; read-out: M^Pro IC50, recombinant M^Pro, 20 μM QS1 (Ac-Abu-Tle-Leu-Gln-ACC) substrate, Table 1): 0.56 µM; inhibition at 10 µM [7]: < 50%"
COc1ccc(-c2ccc(C(=O)N[C@@H](CC(C)C)C(=O)N[C@H](C#N)C[C@@H]3CCNC3=O)c(C)c2)cc1 [18k],–,–,–,> 100000 nM,–,–,0.085 µM,–
COc1cccc(-c2ccc(C(=O)N[C@@H](CC(C)C)C(=O)N[C@H](C#N)C[C@@H]3CCNC3=O)cc2)c1 [6e],–,–,–,> 100000 nM,–,–,–,"IC50 ([3]; M^Pro IC50 (μM), Table 2): 0.786 µM; IC50 [3, 18]: 0.786 µM; inhibition at 10 µM [3]: > 95%; inhibition at 10 µM [7]: < 50%"
COc1ccc(-c2ccc(C(=O)N[C@@H](CC3CCCCC3)C(=O)N[C@H](C#N)C[C@@H]3CCNC3=O)cc2)cc1 [12l],1.64 µM,> 10 µM,–,–,0.006 µM,> 10 µM,–,"IC50 [3, 18]: 1.76 µM; inhibition at 10 µM [3]: < 95%; inhibition at 10 µM [7]: < 50%"
COc1ccc(-c2ccc(C(=O)N[C@@H](CC(C)C)C(=O)N[C@H](C#N)C[C@@H]3CCNC3=O)cc2)cc1OC [6f],–,–,–,> 100000 nM,–,–,–,"IC50 ([3]; M^Pro IC50 (μM), Table 2): 0.859 µM; IC50 [3, 18]: 0.859 µM; inhibition at 10 µM [3]: > 95%; inhibition at 10 µM [7]: < 50%"
COc1cccc(-c2ccc(C(=O)N3C[C@@H]4CCC[C@@H]4[C@H]3C(=O)N[C@H](C#N)C[C@@H]3CCNC3=O)c(Cl)c2)c1 [22l],1.07 µM,> 10 µM,1.06 µM,–,0.538 µM,> 10 µM,–,–
COc1ccc(-c2ccc(C(=O)N[C@@H](CC3CCCCC3)C(=O)N[C@H](C#N)C[C@@H]3CCNC3=O)c(Cl)c2)cc1 [23c],1.52 µM,0.104 µM,0.077 µM,> 100000 nM,0.011 µM,> 10 µM,–,"IC50 [3, 19]: 0.077 µM"
COc1cccc(-c2ccc(C(=O)N[C@@H](CC(C)C)C(=O)N[C@H](C#N)C[C@@H]3CCNC3=O)c(Cl)c2)c1 [18n],0.329 µM,0.115 µM,–,> 100000 nM,0.015 µM,–,0.049 µM,"IC50 ([1]; Table 4, read-out: CatK IC50): 0.329 µM; IC50 ([2]; Table 4, read-out: CatB IC50): 0.115 µM; IC50 ([3]; M^Pro IC50 (nM), Table 4): 0.049 µM; IC50 [3, 19]: 0.049 µM; logD [8]: 3.1; microsomal CLint at 1 μM [9]: 111 µL/min/mg; microsomal CLint at 1 μM [10]: 40 µL/min/mg; solubility kinetic [11]: 34 µM; IC50 ([5]; Table 4, read-out: CatS IC50): 0.0155 µM; IC50 ([6]; Table 4, read-out: CatL IC50): > 10 µM"
COc1ccc(-c2ccc(C(=O)N3C[C@@H]4CCC[C@@H]4[C@H]3C(=O)N[C@H](C#N)C[C@@H]3CCNC3=O)c(Cl)c2)cc1 [22k],0.68 µM,> 10 µM,0.743 µM,–,0.718 µM,> 10 µM,–,–
COc1ccc(-c2ccc(C(=O)N[C@@H](CC(C)C)C(=O)N[C@H](C#N)C[C@@H]3CCNC3=O)c(Cl)c2)cc1 [18r],–,–,–,40100 nM,–,–,0.045 µM,"IC50 ([1]; Table 4, read-out: CatK IC50): 0.123 µM; IC50 ([2]; Table 4, read-out: CatB IC50): 0.193 µM; IC50 ([3]; M^Pro IC50 (nM), Table 4): 0.045 µM; IC50 ([5]; Table 4, read-out: CatS IC50): 0.0246 µM; IC50 ([6]; Table 4, read-out: CatL IC50): > 10 µM"
CC(C)C[C@H](NC(=O)c1ccc(-c2ccc3c(cnn3C)c2)cc1Cl)C(=O)N[C@H](C#N)C[C@@H]1CCNC1=O [18o],–,–,–,83500 nM,–,–,0.052 µM,–
COc1cccc(-c2ccc(C(=O)N[C@@H](CC3CCCCC3)C(=O)N[C@H](C#N)C[C@@H]3CCNC3=O)c(F)c2)c1 [23b],1.34 µM,0.238 µM,0.691 µM,–,0.059 µM,> 10 µM,–,–
CC(C)C[C@H](NC(=O)c1ccc(-c2cccc3nn(C)cc23)cc1Cl)C(=O)N[C@H](C#N)C[C@@H]1CCNC1=O [18p],–,–,–,> 100000 nM,–,–,0.068 µM,–
COc1ccc(-c2ccc(C(=O)N[C@@H](CC(C)C)C(=O)N[C@H](C#N)C[C@@H]3CCNC3=O)c(F)c2)cc1 [18b],–,–,–,51600 nM,–,–,0.178 µM,"IC50 ([1]; Table 4, read-out: CatK IC50): 0.077 µM; IC50 ([2]; Table 4, read-out: CatB IC50): 0.106 µM; IC50 ([3]; M^Pro IC50 (nM), Table 4): 0.178 µM; IC50 ([5]; Table 4, read-out: CatS IC50): 0.232 µM; IC50 ([6]; Table 4, read-out: CatL IC50): > 10 µM"
CC(C)C[C@H](NC(=O)c1ccc(-c2cccc3nn(C)cc23)cc1F)C(=O)N[C@H](C#N)C[C@@H]1CCNC1=O [18a],–,–,–,> 100000 nM,–,–,0.162 µM,"IC50 ([1]; Table 4, read-out: CatK IC50): 0.0485 µM; IC50 ([2]; Table 4, read-out: CatB IC50): 0.142 µM; IC50 ([3]; M^Pro IC50 (nM), Table 4): 0.163 µM; IC50 ([5]; Table 4, read-out: CatS IC50): 0.0279 µM; IC50 ([6]; Table 4, read-out: CatL IC50): > 10 µM"
CC(C)C[C@H](NC(=O)c1ccc(-c2ccc3c(cnn3C)c2)cc1F)C(=O)N[C@H](C#N)C[C@@H]1CCNC1=O [18c],–,–,–,> 100000 nM,–,–,0.307 µM,–
CC(C)C[C@H](NC(=O)c1ccc(-c2cccc3nn(C)cc23)cc1)C(=O)N[C@H](C#N)C[C@@H]1CCNC1=O [6j],–,–,–,> 100000 nM,–,–,–,"IC50 ([3]; M^Pro IC50 (μM), Table 2): 0.622 µM; IC50 [3, 18]: 0.622 µM; inhibition at 10 µM [3]: > 95%; inhibition at 10 µM [7]: < 50%"
COc1cccc(-c2ccc(C(=O)N[C@@H](CC3CCCCC3)C(=O)N[C@H](C#N)C[C@@H]3CCNC3=O)cc2)c1 [12k],> 10 µM,> 10 µM,–,–,0.011 µM,> 10 µM,–,"IC50 [3, 18]: 2.01 µM; inhibition at 10 µM [3]: < 95%; inhibition at 10 µM [7]: < 50%"
COc1cccc(-c2ccc(C(=O)N3C[C@H]4[C@@H]([C@H]3C(=O)N[C@H](C#N)C[C@@H]3CCNC3=O)C4(C)C)c(Cl)c2)c1 [22f],4.52 µM,> 10 µM,0.12 µM,> 100000 nM,1.29 µM,> 10 µM,–,"activity against cathepsin B (in words) [2]: completely abolished; IC50 [3, 19]: 0.12 µM; logD [8]: 3.5; microsomal CLint at 1 μM [9]: 450 µL/min/mg; microsomal CLint at 1 μM [10]: 209 µL/min/mg; solubility kinetic [11]: 82 µM"
COc1ccc(-c2ccc(C(=O)N[C@@H](CC3CCCCC3)C(=O)N[C@H](C#N)C[C@@H]3CCNC3=O)c(F)c2)cc1 [23a],> 10 µM,> 10 µM,0.807 µM,–,0.016 µM,> 10 µM,–,–
